Assay results from patent US12577206B2 (BRISTOL-MYERS SQUIBB COMPANY, priority 2020, dated 2026).

Key:
[1] = molecular target: T1, human FPR2 (Homo sapiens, UniProt P25090); test: FPR2 cyclic adenosine monophosphate (cAMP) assay; assay type: cell-based; conditions: CHO cells overexpressing human FPR2; forskolin 5 μM; inhibition of cAMP production; HTRF; read-out: hFPR2 cAMP2 EC50
T1 sequence (P25090 1-351): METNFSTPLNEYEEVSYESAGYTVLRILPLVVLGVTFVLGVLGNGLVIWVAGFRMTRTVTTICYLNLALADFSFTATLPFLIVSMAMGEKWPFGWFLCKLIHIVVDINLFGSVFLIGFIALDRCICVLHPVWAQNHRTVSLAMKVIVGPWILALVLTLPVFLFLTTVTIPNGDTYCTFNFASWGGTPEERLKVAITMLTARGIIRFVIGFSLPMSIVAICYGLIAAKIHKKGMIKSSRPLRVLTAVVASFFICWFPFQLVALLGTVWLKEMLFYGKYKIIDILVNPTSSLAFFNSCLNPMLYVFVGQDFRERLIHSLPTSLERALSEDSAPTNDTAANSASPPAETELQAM
Method in brief: (§1)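 Inhibition of forskolin-stimulated cAMP (final forskolin 5 μM for FPR2, 10 μM for FPR1; IBMX 200 μM) was measured by HTRF in recombinant CHO cells after 30 min at room temperature.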

[2] = molecular target: T2, human FPR1 (Homo sapiens, UniProt P21462); test: FPR1 cyclic adenosine monophosphate (cAMP) assay; assay type: cell-based; conditions: CHO cells overexpressing human FPR1; forskolin 10 μM; inhibition of cAMP production; HTRF; read-out: hFPR1 cAMP2 EC50
T2 sequence (P21462 1-350): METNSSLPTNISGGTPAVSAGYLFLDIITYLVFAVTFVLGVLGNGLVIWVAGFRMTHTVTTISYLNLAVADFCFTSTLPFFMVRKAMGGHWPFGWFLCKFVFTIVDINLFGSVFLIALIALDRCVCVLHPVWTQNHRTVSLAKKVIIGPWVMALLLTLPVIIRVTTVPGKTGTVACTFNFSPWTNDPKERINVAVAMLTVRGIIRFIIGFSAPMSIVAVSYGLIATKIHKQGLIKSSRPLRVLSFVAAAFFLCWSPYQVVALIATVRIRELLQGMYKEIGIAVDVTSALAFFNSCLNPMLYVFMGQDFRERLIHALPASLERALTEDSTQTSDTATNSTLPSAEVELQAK
Method in brief: as §1

| EC50 [1] | EC50 [2] | Compound |
| --- | --- | --- |
| 8 nM | > 10000 nM | [2H]C([2H])([2H])Oc1cc(F)c(-c2c(NC(=O)c3ccc(OC(F)F)cc3)c(=O)n(-c3cc(C(F)F)ccn3)n2C)c(F)c1 [Example 397, N-(5-(2,6-difluoro-4-(methoxy-d3)phenyl)-2-(4-(difluoromethyl)pyridin-2-yl)-1-methyl-3-oxo-2,3-dihydro-1H-pyrazol-4-yl)-4-(difluoromethoxy)benzamide] |
| 5 nM | > 10000 nM | [2H]C([2H])([2H])Oc1cc(F)c(-c2c(NC(=O)c3ccc(OC(F)(F)F)cc3)c(=O)n(-c3cc(C(F)(F)F)ccn3)n2C)c(F)c1 [Example 402, N-(5-(2,6-difluoro-4-(methoxy-d3)phenyl)-1-methyl-3-oxo-2-(4-(trifluoromethyl)pyridin-2-yl)-2,3-dihydro-1H-pyrazol-4-yl)-4-(trifluoromethoxy)benzamide] |
| 7 nM | 1500 nM | [2H]C([2H])([2H])Oc1cc(F)c(-c2c(NC(=O)c3ccc(OC(F)F)cc3)c(=O)n(-c3cccc(C(C)(C)O)n3)n2C)c(F)c1 [Example 404, N-(5-(2,6-difluoro-4-(methoxy-d3)phenyl)-2-(6-(2-hydroxypropan-2-yl)pyridin-2-yl)-1-methyl-3-oxo-2,3-dihydro-1H-pyrazol-4-yl)-4-(difluoromethoxy)benzamide] |
| 8 nM | 390 nM | [2H]C([2H])([2H])Oc1cc(F)c(-c2c(NC(=O)c3ccc(OC(F)(F)F)cc3)c(=O)n(-c3cccc(C(C)(C)O)n3)n2C)c(F)c1 [Example 405, N-(5-(2,6-difluoro-4-(methoxy-d3)phenyl)-2-(6-(2-hydroxypropan-2-yl)pyridin-2-yl)-1-methyl-3-oxo-2,3-dihydro-1H-pyrazol-4-yl)-4-(trifluoromethoxy)benzamide] |
| 12 nM | 1600 nM | Cn1c(-c2c(F)cc(Cl)cc2F)c(NC(=O)c2ccc(OC(F)(F)F)cc2)c(=O)n1-c1cccc(C(C)(C)O)n1 [Example 406, N-(5-(4-chloro-2,6-difluorophenyl)-2-(6-(2-hydroxypropan-2-yl)pyridin-2-yl)-1-methyl-3-oxo-2,3-dihydro-1H-pyrazol-4-yl)-4-(trifluoromethoxy)benzamide] |

Further lines, the compound ahead of its results:

| Compound | EC50 [1] | EC50 [2] |
| --- | --- | --- |
| CC(C)Oc1cc(OCCO)nc(-n2c(=O)c(NC(=O)c3ccc(OC(F)(F)F)cc3)c(-c3c(F)cc(Cl)cc3F)n2C)c1 [Example 398, N-(5-(4-chloro-2,6-difluorophenyl)-2-(6-(2-hydroxyethoxy)-4-isopropoxypyridin-2-yl)-1-methyl-3-oxo-2,3-dihydro-1H-pyrazol-4-yl)-4-(trifluoromethoxy)benzamide] | 24 nM | 590 nM |
| CC(C)Oc1cc(OCCO)nc(-n2c(=O)c(NC(=O)c3ccc(OC(F)F)cc3)c(-c3c(F)cc(Cl)cc3F)n2C)c1 [Example 399, N-(5-(4-chloro-2,6-difluorophenyl)-2-(6-(2-hydroxyethoxy)-4-isopropoxypyridin-2-yl)-1-methyl-3-oxo-2,3-dihydro-1H-pyrazol-4-yl)-4-(difluoromethoxy)benzamide] | 11 nM | 550 nM |
| Cc1cc(OCC(C)(C)O)nc(-n2c(=O)c(NC(=O)c3ccc(OC(F)F)cc3)c(-c3c(F)cc(OC(F)F)cc3F)n2C)c1 [Example 400, 4-(difluoromethoxy)-N-(5-(4-(difluoromethoxy)-2,6-difluorophenyl)-2-(6-(2-hydroxy-2-methylpropoxy)-4-methylpyridin-2-yl)-1-methyl-3-oxo-2,3-dihydro-1H-pyrazol-4-yl)benzamide] | 57 nM | > 10000 nM |
| Cn1c(-c2c(F)cc(C(F)(F)F)cc2F)c(NC(=O)c2ccc(OC(F)F)cc2)c(=O)n1-c1cccc(C(C)(C)O)n1 [Example 401, N-(5-(2,6-difluoro-4-(trifluoromethyl)phenyl)-2-(6-(2-hydroxypropan-2-yl)pyridin-2-yl)-1-methyl-3-oxo-2,3-dihydro-1H-pyrazol-4-yl)-4-(difluoromethoxy)benzamide] | 103 nM | 1800 nM |
| CCc1cc(F)c(-c2c(NC(=O)c3ccc(OC(F)(F)F)cc3)c(=O)n(-c3cccc(C(C)(C)O)n3)n2C)c(F)c1 [Example 403, N-(5-(4-ethyl-2,6-difluorophenyl)-2-(6-(2-hydroxypropan-2-yl)pyridin-2-yl)-1-methyl-3-oxo-2,3-dihydro-1H-pyrazol-4-yl)-4-(trifluoromethoxy)benzamide] | 6 nM | 1700 nM |
| Cn1c(-c2c(F)cc(Cl)cc2F)c(NC(=O)c2ccc(OC(F)F)cc2)c(=O)n1-c1cccc(C(C)(C)O)n1 [Example 407] | 23 nM | > 10000 nM |
| CC(C)Oc1cc(OCC(C)(C)O)nc(-n2c(=O)c(NC(=O)c3ccc(OC(F)(F)F)cc3)c(-c3c(F)cc(Cl)cc3F)n2C)c1 [Example 408, N-(5-(4-chloro-2,6-difluorophenyl)-2-(6-(2-hydroxy-2-methylpropoxy)-4-isopropoxypyridin-2-yl)-1-methyl-3-oxo-2,3-dihydro-1H-pyrazol-4-yl)-4-(trifluoromethoxy)benzamide] | 7 nM | 1100 nM |
